# Results from paper PMC6149819, “Domain IV of Annexin A5 Is Critical for Binding Calcium and Guarantees Its Maximum Binding to the Phosphatidylserine Membrane” (Molecules : A Journal of Synthetic Chemistry and Natural …, 2017).
# Legend:
# wtA5 (wild-type anxA5) = target: T1, wtA5 (wild-type anxA5) (Homo sapiens, UniProt P08758); assay: isothermal titration calorimetry, one-site model; type: binding
# T1 construct: non-fusion protein released by SspDnaB intein self-cleavage, His6-CBD-intein removed; E. coli BL21(DE3); forward primer encodes AQVLRG directly after the intein (initiator Met absent)
# T1 sequence (P08758 2-320): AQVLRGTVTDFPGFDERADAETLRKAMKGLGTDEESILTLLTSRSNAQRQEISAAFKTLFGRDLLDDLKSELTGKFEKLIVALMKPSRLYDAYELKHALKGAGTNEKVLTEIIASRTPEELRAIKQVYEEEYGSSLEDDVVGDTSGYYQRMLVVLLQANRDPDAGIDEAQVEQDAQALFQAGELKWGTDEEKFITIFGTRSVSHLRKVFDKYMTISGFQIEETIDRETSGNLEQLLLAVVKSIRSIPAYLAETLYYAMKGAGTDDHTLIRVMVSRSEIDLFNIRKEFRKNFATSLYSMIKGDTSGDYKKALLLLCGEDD
# Description: isothermal titration calorimetry, one-site model on wtA5 (wild-type anxA5)
# [1] = target: T2, ctA5 (C-terminal truncated anxA5, lacking domain IV) (Homo sapiens, UniProt P08758, DEL255-320); assay: isothermal titration calorimetry, one-site model; type: binding
# T2 construct: domain IV (last 66 residues) deleted; reverse primer ends at AYLAET; non-fusion protein released by SspDnaB intein self-cleavage, His6-CBD-intein removed; E. coli BL21(DE3); initiator Met absent
# T2 sequence (P08758 2-254): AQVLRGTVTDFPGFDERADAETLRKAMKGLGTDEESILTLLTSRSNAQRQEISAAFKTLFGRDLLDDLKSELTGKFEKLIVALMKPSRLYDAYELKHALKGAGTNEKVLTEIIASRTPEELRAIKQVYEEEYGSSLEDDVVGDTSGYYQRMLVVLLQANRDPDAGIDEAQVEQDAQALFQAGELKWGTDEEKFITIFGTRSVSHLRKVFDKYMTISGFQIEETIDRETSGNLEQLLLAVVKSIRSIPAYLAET
# Description: isothermal titration calorimetry, one-site model on ctA5 (C-terminal truncated anxA5, lacking domain IV)
compound,measurement,setting,value
CCCCCCCC/C=C\CCCCCCCC(=O)O[C@H](COC(=O)CCCCCCCCCCCCCCC)COP(=O)(O)OC[C@H](N)C(=O)O [POPS],Kd,wtA5 (wild-type anxA5),55.9 ± 6.8 µM
same,Kd,[1],158 ± 15.4 µM
